This experiment deals with MV-4-11 cells. Kind of experiment: Gene expression microarray analysis (Affymetrix PrimeView) and GSEA. It is filed as cell-based, human. The arrangement: RFU PODN (11730768_x_at) / Fold change /veh PODN (11730768_x_at) / RFU LINC00158 (11744669_a_at) / Fold change /veh LINC00158 (11744669_a_at) / RFU DUSP10 (11751237_a_at) / Fold change /veh DUSP10 (11751237_a_at) / RFU ID3 (11757404_x_at) / Fold change /veh ID3 (11757404_x_at) / RFU PLEKHG5 (11737974_s_at) / Fold change /veh PLEKHG5 (11737974_s_at) / RFU LRRC4B (11730491_at) / Fold change /veh LRRC4B (11730491_at) / RFU GIMAP4 (11747438_a_at) / Fold change /veh GIMAP4 (11747438_a_at) / RFU KRT8 (11758183_x_at) / Fold change /veh KRT8 (11758183_x_at) / RFU CNN1 (11734310_a_at) / Fold change /veh CNN1 (11734310_a_at) / RFU VPS37D (11726825_at) / Fold change /veh VPS37D (11726825_at) / RFU C10orf10 (11716522_x_at) / Fold change /veh C10orf10 (11716522_x_at) / RFU KIR2DL2 /// KIR2DL4 /// KIR2DL5A /// KIR2DL5B /// KIR2DS1 /// KIR2DS2 /// KIR2DS3 /// KIR2DS4 /// KIR3DL3 /// KIR3DL3 /// KIR3DS1 (11738374_at) / Fold change /veh KIR2DL2 /// KIR2DL4 /// KIR2DL5A /// KIR2DL5B /// KIR2DS1 /// KIR2DS2 /// KIR2DS3 /// KIR2DS4 /// KIR3DL3 /// KIR3DL3 /// KIR3DS1 (11738374_at) / RFU C1QL1 (11718748_at) / Fold change /veh C1QL1 (11718748_at) / RFU TMPRSS4 (11747572_a_at) / Fold change /veh TMPRSS4 (11747572_a_at) / RFU HAMP (11756126_x_at) / Fold change /veh HAMP (11756126_x_at) / RFU RNFT2 (11725882_a_at) / Fold change /veh RNFT2 (11725882_a_at) / RFU NR4A2 (11747474_a_at) / Fold change /veh NR4A2 (11747474_a_at) / RFU ABCC12 (11746883_a_at) / Fold change /veh ABCC12 (11746883_a_at) / RFU TMEM136 (11760407_x_at) / Fold change /veh TMEM136 (11760407_x_at) / RFU CLDN22 /// WWC2 (11732394_at) / Fold change /veh CLDN22 /// WWC2 (11732394_at) / RFU HLA-DPB1 (11760878_x_at) / Fold change /veh HLA-DPB1 (11760878_x_at) / RFU SPINT1 (11716480_a_at) / Fold change /veh SPINT1 (11716480_a_at) / RFU GAP43 (11754022_s_at) / Fold change /veh GAP43 (11754022_s_at) / RFU A4GNT (11735810_at) / Fold change /veh A4GNT (11735810_at) / RFU PRB3 (11715151_x_at) / Fold change /veh PRB3 (11715151_x_at) / RFU TUBB4B (11761932_at) / Fold change /veh TUBB4B (11761932_at) / RFU CAPN14 (11732068_a_at) / Fold change /veh CAPN14 (11732068_a_at) / RFU TMCC2 (11721928_a_at) / Fold change /veh TMCC2 (11721928_a_at) / RFU IRGQ (11745062_a_at) / Fold change /veh IRGQ (11745062_a_at) / RFU FAM174B (11720279_a_at) / Fold change /veh FAM174B (11720279_a_at) / RFU TMPRSS4 (11748680_a_at) / Fold change /veh TMPRSS4 (11748680_a_at) / RFU FAM212B (11763350_a_at) / Fold change /veh FAM212B (11763350_a_at) / RFU PLEKHG5 (11743358_a_at) / Fold change /veh PLEKHG5 (11743358_a_at) / RFU ZSCAN30 (11745921_a_at) / Fold change /veh ZSCAN30 (11745921_a_at) / RFU CMKLR1 (11741424_a_at) / Fold change /veh CMKLR1 (11741424_a_at) / RFU LOC101060620 /// MAPK8IP1 (11723275_at) / Fold change /veh LOC101060620 /// MAPK8IP1 (11723275_at) / RFU SPTSSB (11747773_x_at) / Fold change /veh SPTSSB (11747773_x_at) / RFU PRSS12 (11739890_at) / Fold change /veh PRSS12 (11739890_at) / RFU BIN1 (11741810_x_at) / Fold change /veh BIN1 (11741810_x_at) / RFU WNT11 (11732464_a_at) / Fold change /veh WNT11 (11732464_a_at) / RFU C10orf10 (11716521_a_at) / Fold change /veh C10orf10 (11716521_a_at) / RFU C5orf56 (11738089_at) / Fold change /veh C5orf56 (11738089_at) / RFU CYB561 (11721691_x_at) / Fold change /veh CYB561 (11721691_x_at) / RFU ANKRD19P (11752326_a_at) / Fold change /veh ANKRD19P (11752326_a_at) / RFU OR2T12 /// OR2T33 /// OR2T8 (11738714_s_at) / Fold change /veh OR2T12 /// OR2T33 /// OR2T8 (11738714_s_at) / RFU VCAN (11748164_a_at) / Fold change /veh VCAN (11748164_a_at) / RFU JSRP1 (11732532_at) / Fold change /veh JSRP1 (11732532_at) / RFU KRTAP10-11 (11738290_x_at) / Fold change /veh KRTAP10-11 (11738290_x_at) / RFU MYO3A (11730013_a_at) / Fold change /veh MYO3A (11730013_a_at) / RFU EBF3 (11725865_a_at) / Fold change /veh EBF3 (11725865_a_at) / RFU CAMK2N1 (11719241_x_at) / Fold change /veh CAMK2N1 (11719241_x_at) / RFU C5orf56 (11738088_a_at) / Fold change /veh C5orf56 (11738088_a_at) / RFU OLFML3 (11715873_a_at) / Fold change /veh OLFML3 (11715873_a_at) / RFU LOC100653217 /// NTM (11731650_a_at) / Fold change /veh LOC100653217 /// NTM (11731650_a_at) / RFU MAPK11 (11762145_a_at) / Fold change /veh MAPK11 (11762145_a_at) / RFU FIZ1 (11724087_x_at) / Fold change /veh FIZ1 (11724087_x_at) / RFU OASL (11726364_x_at) / Fold change /veh OASL (11726364_x_at) / RFU SOX15 (11748057_x_at) / Fold change /veh SOX15 (11748057_x_at) / RFU CD79A (11719716_a_at) / Fold change /veh CD79A (11719716_a_at) / RFU HIST1H1D (11736915_at) / Fold change /veh HIST1H1D (11736915_at) / RFU CASKIN2 (11723855_a_at) / Fold change /veh CASKIN2 (11723855_a_at) / RFU LOC730098 (11760151_x_at) / Fold change /veh LOC730098 (11760151_x_at) / RFU OR4N2 (11742367_at) / Fold change /veh OR4N2 (11742367_at) / RFU PRRT2 (11749266_a_at) / Fold change /veh PRRT2 (11749266_a_at) / RFU SNX32 (11753110_a_at) / Fold change /veh SNX32 (11753110_a_at) / RFU CDHR5 (11726645_a_at) / Fold change /veh CDHR5 (11726645_a_at) / RFU RCAN1 (11760418_a_at) / Fold change /veh RCAN1 (11760418_a_at) / RFU FAM167A (11723789_a_at) / Fold change /veh FAM167A (11723789_a_at) / RFU FAM26E (11764081_at) / Fold change /veh FAM26E (11764081_at) / RFU ISYNA1 (11749810_s_at) / Fold change /veh ISYNA1 (11749810_s_at) / RFU ACY1 (11761880_at) / Fold change /veh ACY1 (11761880_at) / RFU 11764098_at / Fold change /veh 11764098_at / RFU SAMD14 (11745864_x_at) / Fold change /veh SAMD14 (11745864_x_at) / RFU NPB (11741838_a_at) / Fold change /veh NPB (11741838_a_at) / RFU TMPRSS6 (11731388_a_at) / Fold change /veh TMPRSS6 (11731388_a_at) / RFU KRTAP10-2 (11738614_at) / Fold change /veh KRTAP10-2 (11738614_at) / RFU ARHGAP8 /// PRR5-ARHGAP8 (11727945_x_at) / Fold change /veh ARHGAP8 /// PRR5-ARHGAP8 (11727945_x_at) / RFU KRTAP5-7 /// NADSYN1 (11734609_at) / Fold change /veh KRTAP5-7 /// NADSYN1 (11734609_at) / RFU RASL12 (11751679_a_at) / Fold change /veh RASL12 (11751679_a_at) / RFU CDKN2B (11736163_a_at) / Fold change /veh CDKN2B (11736163_a_at) / RFU PRF1 (11729649_at) / Fold change /veh PRF1 (11729649_at) / RFU, ZNF638 /// ZNF638-IT1 / Fold change vs veh, ZNF638 /// ZNF638-IT1 / RFU, PANK3 / Fold change vs veh, PANK3 / RFU, SH3YL1 / Fold change vs veh, SH3YL1 / RFU, ZEB2 / Fold change vs veh, ZEB2 / RFU, NRIP1 / Fold change vs veh, NRIP1 / RFU, PTTG1IP / Fold change vs veh, PTTG1IP / RFU, CAPN2 / Fold change vs veh, CAPN2 / RFU, MED14 / Fold change vs veh, MED14 / RFU, SNORA58 / Fold change vs veh, SNORA58 / RFU, C1orf63 / Fold change vs veh, C1orf63 / RFU, LRRFIP1 / Fold change vs veh, LRRFIP1 / RFU, NDUFAF7 / Fold change vs veh, NDUFAF7 / RFU, SLC12A2 / Fold change vs veh, SLC12A2 / RFU, IBTK / Fold change vs veh, IBTK / RFU, ESF1 / Fold change vs veh, ESF1 / Fold change vs veh, TMEM50B / RFU, TAOK1 / Fold change vs veh, TAOK1 / RFU, ACBD3 / Fold change vs veh, ACBD3 / RFU, TMA16 / Fold change vs veh, TMA16 / RFU, RWDD3 / Fold change vs veh, RWDD3 / RFU, BCAT1 / Fold change vs veh, BCAT1 / RFU, EDEM3 / Fold change vs veh, EDEM3 / RFU, TMEM33 / Fold change vs veh, TMEM33 / RFU, WDR75 / Fold change vs veh, WDR75 / RFU, AHCTF1 / Fold change vs veh, AHCTF1 / RFU, TFRC / Fold change vs veh, TFRC / RFU, ZDHHC17 / Fold change vs veh, ZDHHC17 / RFU, NOM1 / Fold change vs veh, NOM1 / RFU, ARL8B / Fold change vs veh, ARL8B / RFU, ZBTB11 / Fold change vs veh, ZBTB11 / RFU, TAMM41 / Fold change vs veh, TAMM41 / RFU, KIAA1704 /// LOC100996395 / Fold change vs veh, KIAA1704 /// LOC100996395 / RFU, ING1 / Fold change vs veh, ING1 / RFU, TRMT61B / Fold change vs veh, TRMT61B / RFU, FUBP3 / Fold change vs veh, FUBP3 / RFU, TP53 / Fold change vs veh, TP53 / RFU, TNKS2 / Fold change vs veh, TNKS2 / RFU, ZFP14 / Fold change vs veh, ZFP14 / RFU, ACTR2 / Fold change vs veh, ACTR2 / RFU, PPP3R1 / Fold change vs veh, PPP3R1 / RFU, PIK3R1 / Fold change vs veh, PIK3R1 / RFU, HNRNPA1 / Fold change vs veh, HNRNPA1 / RFU, RNF170 / Fold change vs veh, RNF170 / RFU, ZNF28 / Fold change vs veh, ZNF28 / RFU, RNGTT / Fold change vs veh, RNGTT / RFU, OGT / Fold change vs veh, OGT / RFU, BRD1 / Fold change vs veh, BRD1 / RFU, MARS / Fold change vs veh, MARS / RFU, ZNF655 / Fold change vs veh, ZNF655 / RFU, FAHD1 / Fold change vs veh, FAHD1 / RFU, BDP1 / Fold change vs veh, BDP1 / RFU, LRRCC1 / Fold change vs veh, LRRCC1 / RFU, ARID1A / Fold change vs veh, ARID1A / RFU, ZNF146 / Fold change vs veh, ZNF146 / RFU, ZNF330 / Fold change vs veh, ZNF330 / RFU, GPN3 / Fold change vs veh, GPN3 / RFU, C9orf123 / Fold change vs veh, C9orf123 / RFU, N4BP2L2 / Fold change vs veh, N4BP2L2 / RFU, ARFIP1 / Fold change vs veh, ARFIP1 / RFU, FAM179B / Fold change vs veh, FAM179B / RFU, BCL10 / Fold change vs veh, BCL10 / RFU, UHRF1BP1L / Fold change vs veh, UHRF1BP1L / RFU, BET1 / Fold change vs veh, BET1 / RFU, CNOT2 / Fold change vs veh, CNOT2 / RFU, ZNF268 / Fold change vs veh, ZNF268 / Fold change vs veh, ZNF507 / RFU, DGCR2 / Fold change vs veh, DGCR2 / RFU, WDSUB1 / Fold change vs veh, WDSUB1 / Fold change vs veh, HSP90B1 /// MIR3652 / RFU, ADSS / Fold change vs veh, ADSS / RFU, GK / Fold change vs veh, GK / RFU, ZNF148 / Fold change vs veh, ZNF148 / RFU, TAF9 / Fold change vs veh, TAF9 / RFU, SLC1A5 / Fold change vs veh, SLC1A5 / RFU, SLMO2 / Fold change vs veh, SLMO2 / RFU, ABCC4 / Fold change vs veh, ABCC4 / RFU, LOC101060439 /// RAP1B / Fold change vs veh, LOC101060439 /// RAP1B / RFU, RFX7 / Fold change vs veh, RFX7 / RFU, GTPBP10 / Fold change vs veh, GTPBP10 / RFU, CNEP1R1 / Fold change vs veh, CNEP1R1 / RFU, BIVM-ERCC5 /// ERCC5 / Fold change vs veh, BIVM-ERCC5 /// ERCC5 / RFU, ILF3 / Fold change vs veh, ILF3 / RFU 11762660_at / Fold change /veh 11762660_at / RFU VCAN (11757783_s_at) / Fold change /veh VCAN (11757783_s_at) / RFU DDX43 (11728927_at) / Fold change /veh DDX43 (11728927_at) / RFU KRT8 (11758188_x_at) / Fold change /veh KRT8 (11758188_x_at) / RFU NKD1 (11759106_at) / Fold change /veh NKD1 (11759106_at) / RFU SRD5A1 (11742802_a_at) / Fold change /veh SRD5A1 (11742802_a_at) / RFU TPSAB1 /// TPSB2 (11721975_s_at) / Fold change /veh TPSAB1 /// TPSB2 (11721975_s_at) / RFU GSTM3 (11746129_a_at) / Fold change /veh GSTM3 (11746129_a_at) / RFU IL23R (11737362_x_at) / Fold change /veh IL23R (11737362_x_at) / RFU TMEM51 (11727254_a_at) / Fold change /veh TMEM51 (11727254_a_at) / RFU PIWIL2 (11732686_x_at) / Fold change /veh PIWIL2 (11732686_x_at) / RFU ORM1 (11744905_x_at) / Fold change /veh ORM1 (11744905_x_at) / RFU CCDC152 (11743942_at) / Fold change /veh CCDC152 (11743942_at) / RFU ECM1 (11717891_a_at) / Fold change /veh ECM1 (11717891_a_at) / RFU IL23R (11748794_a_at) / Fold change /veh IL23R (11748794_a_at) / RFU TNFAIP8L3 (11732012_x_at) / Fold change /veh TNFAIP8L3 (11732012_x_at) / RFU MBOAT4 (11741988_at) / Fold change /veh MBOAT4 (11741988_at) / RFU 11764193_at / Fold change /veh 11764193_at / RFU TMEM53 (11763286_at) / Fold change /veh TMEM53 (11763286_at) / RFU MAGEB2 (11727129_at) / Fold change /veh MAGEB2 (11727129_at) / RFU TMEM200A (11744735_a_at) / Fold change /veh TMEM200A (11744735_a_at) / RFU CCDC152 (11751479_a_at) / Fold change /veh CCDC152 (11751479_a_at) / RFU FAM211A (11726209_a_at) / Fold change /veh FAM211A (11726209_a_at) / RFU RGS16 (11746705_a_at) / Fold change /veh RGS16 (11746705_a_at) / RFU VCAN (11755009_s_at) / Fold change /veh VCAN (11755009_s_at) / RFU RHOB (11743442_s_at) / Fold change /veh RHOB (11743442_s_at) / RFU RGS16 (11720943_a_at) / Fold change /veh RGS16 (11720943_a_at) / RFU RGS16 (11720944_at) / Fold change /veh RGS16 (11720944_at) / RFU, VPS4B / Fold change vs veh, VPS4B / RFU, CREB1 / Fold change vs veh, CREB1 / RFU, DNAJC13 / Fold change vs veh, DNAJC13 / RFU, GNAQ / Fold change vs veh, GNAQ / RFU, CDK5R1 / Fold change vs veh, CDK5R1 / RFU, ZRANB3 / Fold change vs veh, ZRANB3 / RFU, CUL4A / Fold change vs veh, CUL4A / RFU, CCNY / Fold change vs veh, CCNY / RFU, UFL1 / Fold change vs veh, UFL1 / RFU, COG3 / Fold change vs veh, COG3 / RFU, DIAPH2 / Fold change vs veh, DIAPH2 / RFU, SKA2 / Fold change vs veh, SKA2 / RFU, AFF3 / Fold change vs veh, AFF3 / RFU, LMF1 / Fold change vs veh, LMF1 / RFU, IPO11 / Fold change vs veh, IPO11 / RFU, DFFB / Fold change vs veh, DFFB / RFU, FOXP1 / Fold change vs veh, FOXP1 / RFU, CARD8 / Fold change vs veh, CARD8 / RFU, STRN3 / Fold change vs veh, STRN3 / RFU, ADK / Fold change vs veh, ADK / RFU, RASSF2 / Fold change vs veh, RASSF2 / RFU, WIPF1 / Fold change vs veh, WIPF1 / RFU, LARP1B / Fold change vs veh, LARP1B / RFU, RASA1 / Fold change vs veh, RASA1 / RFU, RB1 / Fold change vs veh, RB1 / RFU, PPFIA1 / Fold change vs veh, PPFIA1 / RFU, MAT2A / Fold change vs veh, MAT2A / RFU, CCT5 / Fold change vs veh, CCT5 / RFU, WDR92 / Fold change vs veh, WDR92 / RFU, CUX1 / Fold change vs veh, CUX1 / RFU, TTC7A / Fold change vs veh, TTC7A / RFU, TMEM135 / Fold change vs veh, TMEM135 / RFU, DEPTOR / Fold change vs veh, DEPTOR / RFU, CPM / Fold change vs veh, CPM / RFU, DNAJB6 / Fold change vs veh, DNAJB6 / RFU, CACNA2D3 / Fold change vs veh, CACNA2D3 / RFU, DTX4 / Fold change vs veh, DTX4 / RFU, TFCP2 / Fold change vs veh, TFCP2 / RFU, GMCL1 /// GMCL1P1 / Fold change vs veh, GMCL1 /// GMCL1P1 / RFU, AEBP2 / Fold change vs veh, AEBP2 / RFU, SNHG1 /// SNORD22 /// SNORD25 /// SNORD26 /// SNORD27 /// SNORD28 /// SNORD29 /// SNORD31 / Fold change vs veh, SNHG1 /// SNORD22 /// SNORD25 /// SNORD26 /// SNORD27 /// SNORD28 /// SNORD29 /// SNORD31 / Fold change (Aza/veh), C12orf56 (ProbeSet 11735607_a_at) / Fold change (ACY-1035/veh), C12orf56 (ProbeSet 11735607_a_at) / Fold change (Aza/veh), FGFR1OP (ProbeSet 11751329_s_at) / Fold change (ACY-1035/veh), FGFR1OP (ProbeSet 11751329_s_at) / Fold change (Aza/veh), VPS36 (ProbeSet 11739960_a_at) / Fold change (ACY-1035/veh), VPS36 (ProbeSet 11739960_a_at) / RFU SYPL1 (11715823_x_at) / Fold change /veh SYPL1 (11715823_x_at) / RFU IGFBP7 (11715501_s_at) / Fold change /veh IGFBP7 (11715501_s_at) / RFU REEP3 (11722064_at) / Fold change /veh REEP3 (11722064_at) / RFU IGLL1 (11728026_x_at) / Fold change /veh IGLL1 (11728026_x_at): dose or concentration left out as unconfirmed. The settings on record: MV-4-11 cells, 48 hours.

Consider `Nc1ncn([C@@H]2O[C@H](CO)[C@@H](O)[C@H]2O)c(=O)n1` [azacitidine], for which the “Fold change /veh CYB561 (11721691_x_at)” value came to 1.09.
